In patent publication US10041937B2, “Macrophage identification agent, and identification method, sorting method, evaluation method, screening method and kit using the macrophage identifier agent” (CANON KABUSHIKI KAISHA, priority 2013, dated 2018):

Tested on: M1 macrophages and M2 macrophages differentiated from mouse bone marrow cells
Assay: Subtype identification by staining and flow cytometry of M1 and M2 macrophages differentiated from mouse bone marrow cells
Assay type: cell-based, Balb/c mouse
Protocol: The culture of subtypes was performed according to a protocol described in NPL 7. Specifically, bone marrow cells collected from the femur of a Balb/c mouse of 8 to 10 weeks old were dispersed to a concentration of 1×10^6/mL in an IMDM containing 20% FBS and 1% P/S, and 1×10^7 cells were seeded in a 100 mm dish. After further adding an M-CSF (manufactured by Pepro Tech) thereto to a concentration of 50 ng/mL, the cells were incubated for 3 to 4 days in the presence of 5% CO2 at 37° C., so as to differentiate macrophage precursor cells to macrophages. After exchanging the medium, the M-CSF was added to a concentration of 50 ng/mL, and the incubation was performed for further 3 to 4 days in the presence of 5% CO2 at 37° C., and then, the resulting cells were differentiated to macrophage. By adding 200 ng of interferon-γ and 1 μg of […] (both manufactured by Pepro Tech) to the IMDM containing 5% FBS and 1% P/S, the cells were differentiated to the subtype M1. Besides, by adding 100 ng of IL-4 to the IMDM containing 5% FBS and 1% P/S, the cells were differentiated to the subtype M2. After performing the incubation for further 3 days in the presence of 5% CO2 at 37° C., the resultant was rinsed with PBS, and PBS containing 0.25% trypsin and 1 mM EDTA (ethylenediaminetetraacetic acid) was used for collecting, from the dish, the macrophages having been differentiated to the subtypes M1 and M2.
Thereafter, the tube was centrifuged at 180 G for 10 minutes to remove the supernatant, a dye for identifying dead cells (aqua fluorescent reactive dye, manufactured by Invitrogen; which is hereinafter sometimes abbreviated as aqua) was added thereto, and the resultant was incubated at 4° C. for 10 minutes. Subsequently, the tube was centrifuged at 180 G for 10 minutes to remove the supernatant, cells were suspended in a FACS buffer to be analyzed by using FACSCanto (trademark) II flow cytometry apparatus manufactured by BD.
The analysis was performed on a cell population showing a low signal for the aqua, so as to analyze a cell population from which dead cells were eliminated. […] A histogram was prepared by plotting fluorescence intensity obtained in the FITC channel on the abscissa and plotting the number of cells at each fluorescence intensity on the ordinate, which is shown in FIG. 2.
Histograms were prepared by plotting fluorescence intensities obtained in the respective channels on the abscissa and plotting the numbers of cells at each fluorescence intensity on the ordinate. A difference between a fluorescence intensity (FM1) at a peak top of the histogram of the M1 macrophage and a fluorescence intensity (FM2) at a peak top of the histogram of the M2 macrophage is divided by a sum of a peak width (WM1) of the histogram of the M1 macrophage and a peak width (WM2) of the histogram of the M2 macrophage, so as to obtain a resolution R, which was used as an index of the identification ability for a subtype (see the following expression (1)). Resolution R=|FM1−FM2|/(WM1+WM2) Expression (1)

[1] = R=|FM1−FM2|/(WM1+WM2), compound 1 μM
[2] = fluorescence intensity at peak top of histogram, compound 1 μM, 37° C., 30 minutes
[3] = M1 vs M2 macrophages from mouse bone marrow cells, general formula (6) dyes (Table 7)
[4] = class based on resolution R, general formula (6) dyes (Table 7)
[5] = mouse bone marrow-derived M1 macrophages, channel listed per compound, general formula (6) dyes (Table 7)
[6] = mouse bone marrow-derived M2 macrophages, channel listed per compound, general formula (6) dyes (Table 7)

Structure (SMILES)	Resolution ratio R [1]	Peak position of M1 macrophage [2]	Peak position of M2 macrophage [2]	Evaluation of macrophage subtype identification (rated from resolution R)	Selectivity (subtype strongly stained)	Resolution ratio R [3]	Evaluation of macrophage subtype identification [4]	Peak position of M1 macrophage [5]	Peak position of M2 macrophage [6]
CCN1C(=O)S/C(=c2/s/c(=C/c3ccc4c(c3)C3CCCC3N4c3ccc(OC)cc3)c(=O)n2CC(=O)O)C1=O (centres unmarked) [(44)]	0.330	24.5	12.9	B (the compound is good in the subtype identification (namely, the resolution R is 0.15 or more and less than 0.5))					
CCOC(=O)Cn1c(=O)/c(=C\c2ccc3c(c2)C2CCCC2N3c2ccc(OC)cc2)s/c1=C1/SC(=O)N(CC)C1=O (centres unmarked) [(45)]	0.822	18.2	4.84	A (The compound is very good in the subtype identification (namely, the resolution R is 0.5 or more))					
CCOC(=O)CN1C(=O)/C(=C\c2ccc3c(c2)C2CCCC2N3c2ccccc2)SC1=S (centres unmarked) [(48)]	0.621	65.4	9.74	A (The compound is very good in the subtype identification (namely, the resolution R is 0.5 or more))					
CCOC(=O)CN1C(=O)/C(=C\c2cc(Br)c3c(c2)C2CCCC2N3c2ccc(Br)cc2)SC1=S (centres unmarked) [(49)]	0.486	3.26	5.02	B (the compound is good in the subtype identification (namely, the resolution R is 0.15 or more and less than 0.5))					
CSc1cccc(N2c3ccc(/C=C4/SC(=S)N(CC(=O)O)C4=O)cc3C3CCCC32)c1 (centres unmarked) [(50)]	1.025	3.24	0.99	A (The compound is very good in the subtype identification (namely, the resolution R is 0.5 or more))					
C=CCN1C(=O)/C(=c2\s/c(=C/c3ccc4c(c3)C3CCCC3N4Cc3ccccc3)c(=O)n2CC(=O)OCC)SC1=S (centres unmarked) [(52)]	0.756	3.90	1.68	A (The compound is very good in the subtype identification (namely, the resolution R is 0.5 or more))					
O=C(O)Cn1c(=O)/c(=C\c2ccc3c(c2)C2CCCC2N3Cc2ccccc2)s/c1=C1/SC(=S)N(Cc2ccccc2)C1=O (centres unmarked) [(53)]	0.650	128	190	A (The compound is very good in the subtype identification (namely, the resolution R is 0.5 or more))					
COc1ccc(N2c3ccc(/C=c4/s/c(=C5/SC(=S)N(Cc6ccccc6)C5=O)n(CC(=O)O)c4=O)cc3C3CCCC32)cc1 (centres unmarked) [(54)]	0.531	154	211	A (The compound is very good in the subtype identification (namely, the resolution R is 0.5 or more))					
CCOC(=O)Cn1c(=O)/c(=C\c2ccc3c(c2)C2CCCC2N3Cc2ccccc2)s/c1=C1/SC(=S)N(CC)C1=O (centres unmarked) [(55)]	0.206	2.34	1.86	B (the compound is good in the subtype identification (namely, the resolution R is 0.15 or more and less than 0.5))					
CCN1c2ccc(/C=C3/SC(=S)N(CCC(=O)O)C3=O)cc2CC1C (centres unmarked) [(56)]	0.207	4.90	6.36	B (the compound is good in the subtype identification (namely, the resolution R is 0.15 or more and less than 0.5))					
CCN1C(=O)/C(=c2\s/c(=C/c3ccc4c(c3)CC(C)N4CC)c(=O)n2CC(=O)O)SC1=S (centres unmarked) [(57)]	0.167	4.20	3.59	B (the compound is good in the subtype identification (namely, the resolution R is 0.15 or more and less than 0.5))					
CC1(C)C(/C=C/c2ccc3c(c2)C2CCCC2N3c2ccc(C=C(c3ccccc3)c3ccccc3)cc2)=[N+](CCC(=O)O)c2ccccc21 (centres unmarked) [(59)]	0.733	188	325	A (The compound is very good in the subtype identification (namely, the resolution R is 0.5 or more))					
COc1ccc(N2c3ccc(/C=C/C4=[N+](CCC(=O)O)c5ccc6ccccc6c5C4(C)C)cc3C3CCCC32)cc1 (centres unmarked) [(60)]	0.621	4.55	7.65	A (The compound is very good in the subtype identification (namely, the resolution R is 0.5 or more))					
COc1ccc(N2c3ccc(/C=C/C4=[N+](C)c5ccccc5C4(C)C)cc3C3CCCC32)cc1 (centres unmarked) [(62)]	0.561	193	333	A (The compound is very good in the subtype identification (namely, the resolution R is 0.5 or more))	M2				
CCN1c2ccc(/C=C/c3sc4ccccc4[n+]3CC(=O)O)cc2C2CCCC21 (centres unmarked) [(65)]	0.236	2.96	4.67	B (the compound is good in the subtype identification (namely, the resolution R is 0.15 or more and less than 0.5))					
N#C/C(=C\C=C\c1ccc2c(c1)C1CCCC1N2c1ccc(C=C(c2ccccc2)c2ccccc2)cc1)C(=O)O (centres unmarked) [(74)]	0.538	2.52	1.25	A (The compound is very good in the subtype identification (namely, the resolution R is 0.5 or more))					
CCN1c2ccc(/C=C/C=C3/SC(=S)N(CCC(=O)O)C3=O)cc2C2CCCC21 (centres unmarked) [(76)]	0.283	7.77	10.5	B (the compound is good in the subtype identification (namely, the resolution R is 0.15 or more and less than 0.5))					
O=C(O)CN1C(=O)/C(=C\C=C\c2ccc3c(c2)C2CCCC2N3c2ccccc2)SC1=S (centres unmarked) [(85)]	0.179	225	285	B (the compound is good in the subtype identification (namely, the resolution R is 0.15 or more and less than 0.5))					
CC1(C)C(/C=C/C=C/C=C/C=C2\N(CCCCS(=O)(=O)[O-])c3ccccc3C2(C)C)=[N+](CCCCS(=O)(=O)[O-])c2ccccc21.[Na+] [(88)]						0.241	B (the compound is good in the subtype identification (namely, the resolution R is 0.15 or more and less than 0.5))	0.95	1.48
CC1(C)C(/C=C/C=C/C=C/C=C2\N(CCCCS(=O)(=O)[O-])c3ccccc3C2(C)C)=[N+](CCCCS(=O)(=O)[O-])c2ccccc21.[Na+] [(90)]						0.321	B (the compound is good in the subtype identification (namely, the resolution R is 0.15 or more and less than 0.5))	0.86	1.31
CC1(C)C(/C=C/C=C/C=C/C=C2\N(CCCCCC(=O)[O-])c3ccccc3C2(C)C)=[N+](CCCCCC(=O)[O-])c2ccccc21.[Na+] [(91)]						0.476	B (the compound is good in the subtype identification (namely, the resolution R is 0.15 or more and less than 0.5))	2.96	13.89
CN1\C(=C/C=C/C=C/C2=[N+](C)c3ccc4ccccc4c3C2(C)C)C(C)(C)c2c1ccc1ccccc21 [(92)]						0.534	A (The compound is very good in the subtype identification (namely, the resolution R is 0.5 or more))	2.27	3.9
